Entries after “also recorded” stand apart in the source; their conditions may differ.
Legend:
Type in all cases: cell-based
[1] = system: 3T3 cells not expressing N-cadherin, N-CAM, or L1 (control cells); assay: Neurite outgrowth of mouse cerebellar neurons on control 3T3 cells (Example 2); details: 500 μg/ml
Description: Neurons were cultured on monolayers of 3T3 cells transfected with cDNA encoding N-cadherin essentially as described by Doherty and Walsh, Curr. Op. Neurobiol. 4:49-55, 1994; Williams et al., Neuron 13:583-594, 1994; Hall et al., Cell Adhesion and Commun. 3:441-450, 1996; Doherty and Walsh, Mol. Cell. Neurosci. 8:99-111, 1994; Safell et al., Neuron 18:231-242, 1997. Briefly, monolayers of control 3T3 fibroblasts and 3T3 fibroblasts that express N-cadherin were established by overnight culture of 80,000 cells in individual wells of an 8-chamber well tissue culture slide. 3000 cerebellar neurons isolated from post-natal day 3 mouse brains were cultured for 18 hours on the various monolayers in control media (SATO/2%FCS), or media supplemented with various concentrations of the cyclic peptide N-Ac-CHAVC-NH2 (SEQ ID NO:10) or a control peptide without the HAV sequence (N-Ac-CHGVC-NH2 (SEQ ID NO:20)). The cultures were then fixed and stained for GAP43 which specifically binds to the neurons and their neurites. The length of the longest neurite on each GAP43 positive neuron was then measured by computer assisted morphometry.

N-CAM = target: T1, N-CAM (Homo sapiens, UniProt P13591); assay: Neurite outgrowth of mouse cerebellar neurons on 3T3 cells expressing N-CAM (Example 2); details: 500 μg/mL
T1 construct: expressed in transfected cells; host or cells: 3T3 cells
T1 sequence (P13591 20-858, species assumed): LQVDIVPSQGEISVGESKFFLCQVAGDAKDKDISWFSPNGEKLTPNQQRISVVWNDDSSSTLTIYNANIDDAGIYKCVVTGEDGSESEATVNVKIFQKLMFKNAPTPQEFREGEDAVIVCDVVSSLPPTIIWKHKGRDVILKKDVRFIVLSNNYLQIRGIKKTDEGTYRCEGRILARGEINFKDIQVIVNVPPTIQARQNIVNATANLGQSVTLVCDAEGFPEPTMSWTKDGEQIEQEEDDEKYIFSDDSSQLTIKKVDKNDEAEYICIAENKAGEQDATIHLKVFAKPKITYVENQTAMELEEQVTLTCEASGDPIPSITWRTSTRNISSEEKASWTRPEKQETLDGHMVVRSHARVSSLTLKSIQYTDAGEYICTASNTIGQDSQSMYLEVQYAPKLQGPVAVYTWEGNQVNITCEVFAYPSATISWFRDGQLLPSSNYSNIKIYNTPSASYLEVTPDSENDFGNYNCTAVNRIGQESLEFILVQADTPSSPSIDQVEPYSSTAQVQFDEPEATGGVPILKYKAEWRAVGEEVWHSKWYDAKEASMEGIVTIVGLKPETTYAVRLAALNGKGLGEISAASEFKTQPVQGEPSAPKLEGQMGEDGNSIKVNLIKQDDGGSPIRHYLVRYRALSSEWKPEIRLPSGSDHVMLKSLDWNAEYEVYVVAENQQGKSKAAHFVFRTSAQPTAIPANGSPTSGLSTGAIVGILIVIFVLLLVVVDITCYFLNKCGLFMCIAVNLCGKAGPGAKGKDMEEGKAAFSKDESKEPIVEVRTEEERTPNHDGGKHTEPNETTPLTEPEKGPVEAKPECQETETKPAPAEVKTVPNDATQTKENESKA

[2] = system: A1N4 human breast epithelial cells; assay: Disruption of breast epithelial cell adhesion, E-cadherin immunostaining; details: 500 μg/mL, 48 hours
Description: A1N4 human breast epithelial cells (kindly provided by Martha Stampfer, Lawrence Berkeley Laboratory, Berkeley, Calif.) were plated on glass coverslips and cultured in F12/DME containing 0.5% FCS and 10 ng/mL EGF for 24 hours. Fresh medium containing the cyclic peptides (final concentration 500 μg/mL media) N-Ac-CHAVC-NH2 (SEQ ID NO:10) or N-Ac-CHGVC-NH2 (SEQ ID NO:20) was then added. Following 24 hours of culture in the presence of the peptides, the medium was removed and fresh medium containing the peptides was added. The cells were fixed 24 hours later with cold methanol and stored in phosphate buffered saline (PBS).
Coverslips were blocked for 1 hour in 3% ovalbumin/PBS and incubated for a further 1 hour in the presence of 1 μg/mL mouse anti-E-cadherin antibody (Zymed, Gaithersburg, Md.). Primary and secondary antibodies were diluted in PBS containing 6% normal goat serum. Following incubation in the primary antibody, coverslips were washed 3 times for 5 minutes each in PBS and incubated for 1 hour with goat anti-mouse conjugated to fluorescein (Kiekegard and Perry, South San Francisco, Calif.) diluted 1:100. Following a further wash in PBS (3×5 minutes) coverslips were mounted in Vectashield (Vector Labs, Burlingame, Calif.) and viewed with a Zeiss infinity corrected microscope.

[3] = system: SKOV3 human ovarian cancer cells; assay: Induction of apoptosis / cell death in SKOV3 cells, in situ cell death detection kit; details: 0.5 or 0.25 mg/mL, 48 hours
Description: Direct assays of induction of apoptosis may be performed using any standard technique. For example, cadherin-expressing cells (e.g., SKOV3 human ovarian cancer cells) may be plated onto poly-L-lysine coated glass slides and cultured with 500 μg/mL of modulating agent for 24-48 hours. Cells may then be fixed and assayed for cell death using any of a variety of well known methods. For example, an in situ cell death detection kit may be purchased from Boehringer Mannheim (Laval, Quebec) and used according to the manufacturer's instructions.
SKOV3 human ovarian cancer cells cultured in the presence of either N-Ac-CHAVC-NH2 (SEQ ID NO:10) or a control peptide (N-Ac-CHGVC-NH2; SEQ ID NO:20) in MEM with 10% FBS were plated onto poly-L-lysine coated glass slides. The cells were cultured for 24 or 48 hours and fixed with 4% paraformaldehyde for 30 minutes at room temperature. The slides were then washed three times with PBS and assessed for cell death. Cells were treated with 0.5 or 0.25 mg/mL of N-Ac-CHAVC-NH2 (SEQ ID NO:10) or the control N-Ac-CHGVC-NH2 (SEQ ID NO:20), as indicated. Cell death was measured as described by Gavrieli et al, J. Cell. Biol. 119:493-501, 1992 and using the In situ cell death detection kit (Boehringer Mannheim; Laval, Quebec).

SMILES: CC(=O)N[C@H]1CSSC[C@@H](C(N)=O)NC(=O)[C@H](C(C)C)NC(=O)[C@H](C)NC(=O)[C@H](Cc2c[nH]cn2)NC1=O [N-Ac-CHAVC-NH2, N-Ac-Cys-His-Ala-Val-Cys-NH2]
- effect on neurite outgrowth on control 3T3 cells [1]: did not inhibit neurite outgrowth
- effect on neurite outgrowth on 3T3 cells expressing N-CAM (N-CAM): did not inhibit neurite outgrowth
- E-cadherin staining and monolayer of A1N4 cells [2]: reduced E-cadherin staining with a stitched appearance; also recorded: distribution of E-cadherin is non-contiguous
- cell death of SKOV3 cells [3]: the cells are dead; also recorded: cell death

Source: patent US20030224978A1, “Compounds and methods for modulating apoptosis” (McGill University, priority 1996, published 2003)
